Experimental data reported in US20240108601A1, “TREATMENT OF MENTAL DISORDERS” (GH Research Ireland Limited, priority 2022, published 2024).

Experiment: In vitro binding of 5-MeO-DMT to plasma proteins, high throughput dialysis
Format: in vitro ADME
Procedure: Following evaluation of the equilibration data, plasma protein binding was investigated at nominal concentrations of 0.1, 1 and 10 μM using a 4-hour dialysis time. […]

Question: Which fraction unbound at 4 h (human plasma) does the source give for `COc1ccc2[nH]cc(CCN(C)C)c2c1` [5-MeO-DMT] here?
Answer: 0.77 to 0.87

Question: What about the fraction unbound at 4 h, 0.1 μM (human, 0.1 μM, 4-hour dialysis, read-out: Free Fraction in human plasma) of the same compound?
Answer: 0.787

Question: What about the fraction unbound at 4 h, 1 μM (human, 1 μM, 4-hour dialysis, read-out: Free Fraction in human plasma) of the same compound?
Answer: 0.773

Question: And the fraction unbound at 4 h, 10 μM (human, 10 μM, 4-hour dialysis, read-out: Free Fraction in human plasma)?
Answer: 0.87
